Measured values: PubChem BioAssay AID256 (DTP/NCI, 2004)
Several values for one entry are separate records, joined by “and”; a condition that tells them apart may be missing. Equal entries are not always repeated. Toxic doses and inconclusive results are not listed.

System: CD2F1 mice, L1210 leukemia ip, survival T/C
Assay: NCI In Vivo Anticancer Drug Screen. Data for tumor model L1210 Leukemia (intraperitoneal) in CD2F1 (CDF1) mice
Conditions: higher = longer survival
Procedure, shortened: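 Antitumor effect is scored in animals hosting a serially transplanted tumor. Values compare compound-dosed animals against vehicle-only controls as a simple quotient.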

[1] = endpoint: mean survival time, dose: 100.0 mg/kg/injection, schedule: Q01DX009 (ip), vehicle: Klucel (hydroxypropylcellulose) (HPC)
[2] = endpoint: mean survival time, dose: 200.0 mg/kg/injection, schedule: Q01DX009 (ip), vehicle: Klucel (hydroxypropylcellulose) (HPC)
[3] = endpoint: mean survival time, dose: 50.0 mg/kg/injection, schedule: Q01DX009 (ip), vehicle: saline with Tween-80
[4] = endpoint: mean survival time, dose: 100.0 mg/kg/injection, schedule: Q01DX009 (ip), vehicle: saline with Tween-80
[5] = endpoint: mean survival time, dose: 100.0 mg/kg/injection, schedule: Q04DX003 (ip), vehicle: saline with Tween-80
[6] = endpoint: mean survival time, dose: 200.0 mg/kg/injection, schedule: Q01DX009 (ip), vehicle: saline with Tween-80
[7] = endpoint: mean survival time, dose: 200.0 mg/kg/injection, schedule: Q04DX003 (ip), vehicle: saline with Tween-80
[8] = endpoint: mean survival time, dose: 100.0 mg/kg/injection, schedule: Q01DX001 (ip), vehicle: saline
[9] = endpoint: mean survival time, dose: 200.0 mg/kg/injection, schedule: Q01DX001 (ip), vehicle: saline
[10] = endpoint: mean survival time, dose: 400.0 mg/kg/injection, schedule: Q01DX001 (ip), vehicle: saline
[11] = endpoint: mean survival time, dose: 100.0 mg/kg/injection, schedule: Q01DX001 (ip), vehicle: saline with Tween-80
[12] = endpoint: mean survival time, dose: 400.0 mg/kg/injection, schedule: Q01DX001 (ip), vehicle: saline with Tween-80

CN(C)N=Nc1ccccc1C(=O)NCC(F)(F)F
T/C (endpoint: mean survival time, dose: 18.75 mg/kg/injection, schedule: Q01DX009 (ip), vehicle: Klucel (hydroxypropylcellulose) (HPC)): 96 % of control and 106 % of control | T/C (endpoint: mean survival time, dose: 37.5 mg/kg/injection, schedule: Q01DX009 (ip), vehicle: Klucel (hydroxypropylcellulose) (HPC)): 93 % of control and 106 % of control | T/C (endpoint: mean survival time, dose: 75.0 mg/kg/injection, schedule: Q01DX009 (ip), vehicle: Klucel (hydroxypropylcellulose) (HPC)): 96 % of control and 100 % of control | T/C (endpoint: mean survival time, dose: 150.0 mg/kg/injection, schedule: Q01DX009 (ip), vehicle: Klucel (hydroxypropylcellulose) (HPC)): 100 % of control and 102 % of control | T/C (endpoint: mean survival time, dose: 300.0 mg/kg/injection, schedule: Q01DX009 (ip), vehicle: Klucel (hydroxypropylcellulose) (HPC)): 100 % of control and 103 % of control

CCOC(=O)C1(C(=O)O)CC2C(C)C=CC(C)C2C1 (configuration not stated)
T/C [1]: 100 % of control | T/C [2]: 102 % of control | T/C (endpoint: mean survival time, dose: 400.0 mg/kg/injection, schedule: Q01DX009 (ip), vehicle: Klucel (hydroxypropylcellulose) (HPC)): 96 % of control

C=C1CC(C)(Cn2cnc3c(N)ncnc32)OC1=O (configuration not stated)
T/C (endpoint: median survival time, dose: 6.13 mg/kg/injection, schedule: Q01DX005 (ip), vehicle: water): 104 % of control | T/C (endpoint: median survival time, dose: 12.25 mg/kg/injection, schedule: Q01DX005 (ip), vehicle: water): 101 % of control | T/C (endpoint: median survival time, dose: 24.5 mg/kg/injection, schedule: Q01DX005 (ip), vehicle: water): 103 % of control | T/C (endpoint: median survival time, dose: 49.0 mg/kg/injection, schedule: Q01DX005 (ip), vehicle: water): 101 % of control

CC(=O)NC(Cc1cc(I)c(OC(C)=O)c(I)c1)C(=O)O (configuration not stated)
T/C [3]: 93 % of control | T/C (endpoint: mean survival time, dose: 50.0 mg/kg/injection, schedule: Q04DX003 (ip), vehicle: saline with Tween-80): 101 % of control | T/C [4]: 93 % of control | T/C [5]: 95 % of control | T/C [6]: 93 % of control | T/C [7]: 97 % of control

O=C(/C=C/c1ccccc1)Nc1ccccc1Cl
T/C (endpoint: mean survival time, dose: 100.0 mg/kg/injection, schedule: Q04DX002 (ip), vehicle: saline with Tween-80): 105 % of control | T/C (endpoint: mean survival time, dose: 200.0 mg/kg/injection, schedule: Q04DX002 (ip), vehicle: saline with Tween-80): 98 % of control | T/C (endpoint: mean survival time, dose: 400.0 mg/kg/injection, schedule: Q04DX002 (ip), vehicle: saline with Tween-80): 98 % of control

O=CNc1ccccc1OCc1ccccc1
T/C [8]: 100 % of control | T/C [9]: 97 % of control | T/C [10]: 103 % of control

Cc1nnnn1C12CC3CC(CC(C3)C1)C2
T/C (endpoint: mean survival time, dose: 9.4 mg/kg/injection, schedule: Q01DX009 (ip), vehicle: saline with Tween-80): 94 % of control

CC(C)N(CC(=O)O)CC(=O)O
T/C [8]: 100 % of control | T/C [9]: 100 % of control

CCOC(=O)C(CC(=O)O)=C1c2ccccc2-c2ccccc21
T/C (endpoint: mean survival time, dose: 25.0 mg/kg/injection, schedule: Q04DX003 (ip), vehicle: Klucel (hydroxypropylcellulose) (HPC)): 96 % of control | T/C (endpoint: mean survival time, dose: 50.0 mg/kg/injection, schedule: Q04DX003 (ip), vehicle: Klucel (hydroxypropylcellulose) (HPC)): 93 % of control | T/C (endpoint: mean survival time, dose: 100.0 mg/kg/injection, schedule: Q04DX003 (ip), vehicle: Klucel (hydroxypropylcellulose) (HPC)): 87 % of control | T/C (endpoint: mean survival time, dose: 200.0 mg/kg/injection, schedule: Q04DX003 (ip), vehicle: Klucel (hydroxypropylcellulose) (HPC)): 93 % of control

CCOCC(=O)CC(C)C
T/C (endpoint: mean survival time, dose: 100.0 mg/kg/injection, schedule: Q04DX003 (ip), vehicle: other): 100 % of control | T/C (endpoint: mean survival time, dose: 200.0 mg/kg/injection, schedule: Q04DX003 (ip), vehicle: other): 91 % of control | T/C (endpoint: mean survival time, dose: 400.0 mg/kg/injection, schedule: Q04DX003 (ip), vehicle: other): 100 % of control

CC(OC(=O)c1ccc([N+](=O)[O-])cc1)C(C)(C)C (configuration not stated)
T/C [8]: 98 % of control | T/C [9]: 100 % of control | T/C [10]: 96 % of control

O=[N+]([O-])c1cc(S(=O)(=O)c2ccc(N3CCOCC3)c([N+](=O)[O-])c2)ccc1N1CCOCC1
T/C [4]: 93 % of control | T/C [6]: 101 % of control | T/C (endpoint: mean survival time, dose: 400.0 mg/kg/injection, schedule: Q01DX009 (ip), vehicle: saline with Tween-80): 92 % of control

Cc1ccnc(N)c1N
T/C (endpoint: mean survival time, dose: 12.5 mg/kg/injection, schedule: Q01DX009 (ip), vehicle: other): 91 % of control | T/C (endpoint: mean survival time, dose: 25.0 mg/kg/injection, schedule: Q01DX009 (ip), vehicle: other): 94 % of control

COC(=O)C[N+]1(C)C2CCC1CC(Cl)C2 (configuration not stated)
T/C (endpoint: mean survival time, dose: 12.5 mg/kg/injection, schedule: Q01DX001 (ip), vehicle: saline): 109 % of control | T/C (endpoint: mean survival time, dose: 25.0 mg/kg/injection, schedule: Q01DX001 (ip), vehicle: saline): 113 % of control

O=C(c1ccccc1)C1CC2(c3ccccc3)C(=O)C1(c1ccccc1)c1c2c2ccccc2c2ccccc12 (configuration not stated)
T/C (endpoint: mean survival time, dose: 50.0 mg/kg/injection, schedule: Q01DX001 (ip), vehicle: saline with Tween-80): 90 % of control | T/C [11]: 86 % of control and 94 % of control | T/C [12]: 89 % of control

Cc1cc([NH-])c([NH-])cc1C.[Cl][Pt+2][Cl]
T/C (endpoint: mean survival time, dose: 2.5 mg/kg/injection, schedule: Q01DX009 (ip), vehicle: saline with Tween-80): 120 % of control and 123 % of control | T/C (endpoint: mean survival time, dose: 10.0 mg/kg/injection, schedule: Q01DX009 (ip), vehicle: saline with Tween-80): 150 % of control and 168 % of control | T/C (endpoint: mean survival time, dose: 10.0 mg/kg/injection, schedule: Q04DX003 (ip), vehicle: water): 121 % of control | T/C (endpoint: mean survival time, dose: 16.0 mg/kg/injection, schedule: Q04DX003 (ip), vehicle: water): 116 % of control | T/C (endpoint: mean survival time, dose: 24.0 mg/kg/injection, schedule: Q04DX003 (ip), vehicle: water): 112 % of control

Nc1nnnc2c1ncn2C1OC(CO)C(O)C1O (configuration not stated)
T/C (endpoint: mean survival time, dose: 300.0 mg/kg/injection, schedule: Q01DX001 (ip), vehicle: saline): 121 % of control

O=c1ccn(C2OC(CO)C(O)C2O)c(C2SCCCS2)n1 (configuration not stated)
T/C (endpoint: mean survival time, dose: 9.38 mg/kg/injection, schedule: Q01DX005 (ip), vehicle: water): 90 % of control | T/C (endpoint: mean survival time, dose: 18.75 mg/kg/injection, schedule: Q01DX005 (ip), vehicle: water): 93 % of control | T/C (endpoint: mean survival time, dose: 37.5 mg/kg/injection, schedule: Q01DX005 (ip), vehicle: water): 93 % of control | T/C (endpoint: mean survival time, dose: 75.0 mg/kg/injection, schedule: Q01DX005 (ip), vehicle: water): 96 % of control | T/C (endpoint: mean survival time, dose: 150.0 mg/kg/injection, schedule: Q01DX005 (ip), vehicle: water): 96 % of control

COc1cc(C(=O)N2CC3CCC(CC3)C2)cc(OC)c1OC
T/C [5]: 93 % of control | T/C [7]: 96 % of control | T/C (endpoint: mean survival time, dose: 400.0 mg/kg/injection, schedule: Q04DX003 (ip), vehicle: saline with Tween-80): 96 % of control

CC(C)(C)CC(C)(C)c1ccc(OCCOS(=O)(=O)c2cccc([N+](=O)[O-])c2)cc1
T/C [3]: 96 % of control | T/C [4]: 89 % of control | T/C [6]: 94 % of control

OCNC(=S)c1c(Cl)cccc1Cl
T/C [4]: 98 % of control | T/C [6]: 102 % of control

CCCCN(CCCC)C(=S)Nc1ccccc1
T/C [3]: 96 % of control | T/C [11]: 107 % of control | T/C [4]: 96 % of control | T/C (endpoint: mean survival time, dose: 200.0 mg/kg/injection, schedule: Q01DX001 (ip), vehicle: saline with Tween-80): 102 % of control | T/C [6]: 86 % of control | T/C [12]: 96 % of control

CCCCOC(=O)c1ccc(OC(=O)NCCC)cc1
T/C (endpoint: mean survival time, dose: 50.0 mg/kg/injection, schedule: Q01DX009 (ip), vehicle: Klucel (hydroxypropylcellulose) (HPC)): 102 % of control | T/C [1]: 108 % of control | T/C [2]: 100 % of control

CCCCS(=O)(=O)F
T/C (endpoint: mean survival time, dose: 25.0 mg/kg/injection, schedule: Q04DX002 (ip), vehicle: saline): 96 % of control | T/C (endpoint: mean survival time, dose: 50.0 mg/kg/injection, schedule: Q04DX002 (ip), vehicle: saline): 101 % of control
